Consider four molecules from US20130225614A1, “4-AZOLYLAMINOQUINAZOLINE DERIVATIVES AND METHODS OF USE THEREOF” (Ambit Biosciences Corporation, priority 2010, published 2013).

Test [1] concerns the target T1, JAK2 (Homo sapiens, UniProt O60674).
T1 construct: made in house; host or cells: T7 phage display or HEK-293 cells (alternatives; not specified per kinase)
In words: Competition binding assay, Kd against JAK2. How it is done:
(§1) Competition binding assays used herein were developed, validated and performed as described in Fabian et al., Nature Biotechnology 2005, 23, 329-336. Kinases were produced as fusions to T7 phage (See, Fabian et al. or WO04/015142) or alternatively, the kinases were expressed in HEK-293 cells and subsequently tagged with DNA for PCR detection (See, WO08/005,310). For the binding assays, streptavidin-coated magnetic beads were treated with biotinylated affinity ligands for 30 min at rt to generate affinity resins. The liganded beads were blocked with excess biotin and washed with blocking buffer (SeaBlock (Pierce), 1% BSA, 0.05% Tween 20, 1 mM DTT) to remove unbound ligand and to reduce non-specific binding. Binding reactions were assembled by combining kinase, liganded affinity beads, and test compounds in 1× binding buffer (20% SeaBlock, 0.17×PBS, 0.05% Tween 20, 6 mM DTT). Test compounds were prepared as 100× stocks in DMSO and rapidly diluted into the aqueous environment. DMSO was added to control assays lacking a test compound. Primary screen interactions were performed in polypropylene 384-well plates in a final volume of 34 μL, while Kd determinations were performed in polystyrene 96-well plates in a final volume of 135 μL. The assay plates were incubated at room temperature with shaking for 1 hour, long enough for binding reactions to reach equilibrium, and the affinity beads were washed extensively with wash buffer (1×PBS, 0.05% Tween 20) to remove unbound protein. The beads were then resuspended in elution buffer (1×PBS, 0.05% Tween 20, 2 μM non-biotinylated affinity ligand) and incubated at room temperature with shaking for 30 min. The kinase concentration in the eluates was measured by quantitative PCR. Each kinase was tested individually against each compound. Kds were determined using eleven serial threefold dilutions. A selectivity score, which is a quantitative measure of selectivity of a compound against a panel of enzymes, may be calculated for a compound by dividing the number of enzymes for which a compound meets a set criteria, (for example, a binding constant of 100 nM or less), by the total number of enzymes tested.

In test [2] the test system is GM-CSFR/JAK2/STAT5 pathway. In words: CSTF-1 cell-based reporter assay (beta-lactamase reporter, GM-CSF stimulated). Conditions: Homo sapiens; csTF-1 cells, GM-CSF at 2 ng/mL, 4 hours; read-out: Cell Assay: CS TF-1 reporter assay IC50. The procedure: CSTF-1 cells are derived from the human erythroleukemia cell line that is growth dependent on GM-CSF and has an intact GM-CSFR/JAK2/STAT5 pathway. The cell line contains stably integrated beta-lactamase reporter gene under the control of the […] (irf 1) response element recognized by the activated transcription factor STATS. csTF-1 cells (Invitrogen K1219) were washed with assay media (97% OPTIMEM/0.5% dialyzed FBS/0.1 mM NEAA/1 mM Na pyr/P/S) and seeded in the same media at 5×10^5 cell/mL in T150 flask. After 16 hour incubation, cells were seeded at 2×10^5 cell/well in 50 μl volume, into Costar, clear bottom, 96-well assay plates. Serial dilutions of compounds were added to the plates with final DMSO concentration at 0.5% and GM-CSF at 2 ng/mL and the plates were then incubated at […] and 5% CO2 for 4 hours. The plates were brought to room temperature before adding Substrate Mixture according to manufacturer's protocol (Invitrogen, Catalog #K1085). The assay plates containing the substrate mixture were incubated in the dark at room temperature for 2 hours. Blue and green fluorescence was measured with excitation at 409 nm and emission at 460 nm (for blue) and excitation at 409 nm and emission at 530 nm (for green) using Spectra Max Gemini EM.
On the technique in general: A reporter such as luciferase makes a cellular process visible.

In test [3] the test system is distinct kinases tested excluding mutant variants, typically 359 or 386 kinases. The test is described as follows: Kinase selectivity in competition binding assays (S10 score; kinases within 100-fold of JAK2 Kd). Conditions: compound at 10 μM; fraction of kinases with inhibition of 90% or greater. How it is done: as §1
In certain embodiments, the compounds provided herein bind to JAK2 kinase with higher specificity as compared to non-mutant and non-JAK family kinases. For certain compounds provided herein, binding constants for less than 10 non-mutant and non-JAK family kinases are within 100-fold of the binding constant for JAK2 kinase for compounds provided herein. For certain compounds provided herein, binding constants for less than 8 non-mutant and non-JAK family kinases are within 100-fold of the binding constant for JAK2 kinase for compounds provided herein. […]

Test [4] deals with T2, JAK3 (Homo sapiens, UniProt P52333).
T2 construct: made in house; host or cells: T7 phage display or HEK-293 cells (alternatives; not specified per kinase)
T2 sequence (P52333 1-1124): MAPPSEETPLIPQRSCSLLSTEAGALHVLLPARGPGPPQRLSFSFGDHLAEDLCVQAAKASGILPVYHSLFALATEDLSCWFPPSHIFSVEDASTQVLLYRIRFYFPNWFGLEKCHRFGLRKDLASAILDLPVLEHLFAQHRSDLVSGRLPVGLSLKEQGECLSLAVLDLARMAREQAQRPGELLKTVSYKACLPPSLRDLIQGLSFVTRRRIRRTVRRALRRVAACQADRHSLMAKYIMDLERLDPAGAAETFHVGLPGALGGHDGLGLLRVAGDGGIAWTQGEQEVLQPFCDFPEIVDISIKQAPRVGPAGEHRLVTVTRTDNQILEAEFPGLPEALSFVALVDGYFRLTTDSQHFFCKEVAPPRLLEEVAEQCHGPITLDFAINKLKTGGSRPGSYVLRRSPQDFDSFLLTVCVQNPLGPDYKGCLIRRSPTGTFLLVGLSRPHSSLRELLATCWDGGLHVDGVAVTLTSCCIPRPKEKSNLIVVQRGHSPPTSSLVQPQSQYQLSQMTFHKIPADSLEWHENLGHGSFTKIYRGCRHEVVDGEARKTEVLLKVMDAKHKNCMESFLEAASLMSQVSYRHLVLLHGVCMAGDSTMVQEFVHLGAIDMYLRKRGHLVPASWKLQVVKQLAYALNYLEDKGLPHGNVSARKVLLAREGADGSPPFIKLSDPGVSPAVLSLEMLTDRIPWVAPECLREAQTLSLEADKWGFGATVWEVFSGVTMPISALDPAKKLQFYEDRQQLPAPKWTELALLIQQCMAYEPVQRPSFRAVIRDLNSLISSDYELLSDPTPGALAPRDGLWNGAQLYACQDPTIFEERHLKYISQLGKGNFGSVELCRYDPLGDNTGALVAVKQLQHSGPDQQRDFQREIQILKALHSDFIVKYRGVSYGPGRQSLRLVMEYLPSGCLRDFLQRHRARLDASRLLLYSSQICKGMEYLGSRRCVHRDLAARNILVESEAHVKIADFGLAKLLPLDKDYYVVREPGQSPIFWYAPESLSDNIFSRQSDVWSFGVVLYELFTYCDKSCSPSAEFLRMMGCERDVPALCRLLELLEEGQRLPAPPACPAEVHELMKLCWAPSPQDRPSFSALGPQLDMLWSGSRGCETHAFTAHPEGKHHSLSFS
The test is described as follows: Competition binding assay, Kd against JAK3. How it is done:
as §1

T1 sequence (O60674 whole entry): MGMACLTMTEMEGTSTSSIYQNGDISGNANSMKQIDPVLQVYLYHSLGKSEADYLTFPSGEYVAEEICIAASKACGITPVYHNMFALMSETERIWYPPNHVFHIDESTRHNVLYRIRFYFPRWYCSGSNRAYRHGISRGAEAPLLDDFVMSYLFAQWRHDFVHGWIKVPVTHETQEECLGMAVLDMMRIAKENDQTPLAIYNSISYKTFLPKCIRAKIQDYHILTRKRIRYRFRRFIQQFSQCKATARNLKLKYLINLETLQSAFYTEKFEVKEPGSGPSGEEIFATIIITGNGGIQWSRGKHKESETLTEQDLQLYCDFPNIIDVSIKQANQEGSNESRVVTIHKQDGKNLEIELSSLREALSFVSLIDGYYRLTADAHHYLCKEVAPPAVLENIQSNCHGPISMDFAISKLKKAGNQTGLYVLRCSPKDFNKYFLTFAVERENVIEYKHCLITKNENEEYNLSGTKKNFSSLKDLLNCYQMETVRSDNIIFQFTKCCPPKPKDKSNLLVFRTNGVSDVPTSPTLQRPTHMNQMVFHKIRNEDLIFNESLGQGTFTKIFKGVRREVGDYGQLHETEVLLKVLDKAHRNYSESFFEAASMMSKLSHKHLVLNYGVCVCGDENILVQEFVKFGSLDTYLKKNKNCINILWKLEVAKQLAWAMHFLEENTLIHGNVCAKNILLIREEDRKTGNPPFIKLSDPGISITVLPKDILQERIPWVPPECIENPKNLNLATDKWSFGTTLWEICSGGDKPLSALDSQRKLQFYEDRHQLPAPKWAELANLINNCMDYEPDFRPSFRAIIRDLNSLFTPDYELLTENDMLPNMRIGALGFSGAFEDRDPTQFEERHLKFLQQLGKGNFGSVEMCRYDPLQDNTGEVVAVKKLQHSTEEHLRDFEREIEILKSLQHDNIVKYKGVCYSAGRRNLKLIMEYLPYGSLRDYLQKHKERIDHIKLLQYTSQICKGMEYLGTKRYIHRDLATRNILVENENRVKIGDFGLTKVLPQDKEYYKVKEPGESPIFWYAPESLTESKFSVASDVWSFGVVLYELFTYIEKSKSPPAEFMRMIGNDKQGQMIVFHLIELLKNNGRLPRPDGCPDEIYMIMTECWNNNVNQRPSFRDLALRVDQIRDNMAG

On to `Cc1cnc(Nc2nc(C(O)c3ccc(F)cc3)nc3ccccc23)s1` (racemic) [Example 5, (R,S)-(4-fluorophenyl)(4-(5-methylthiazol-2-ylamino)quinazolin-2-yl)methanol], for which the Kd is at most 10 nM in test [1] and over 100 nM in test [4]. Also, in test [2], the IC50 is over 500 nM. Moreover, the “S-Score: S(10) at 10 μM” value in test [3] is listed as “A (A ≦ 0.3)”.
On the same counts, the results for `OC(c1ccc(F)cc1)c1nc(Nc2c[nH]cn2)c2ccccc2n1` (racemic) [Example 3, (R,S)-(4-(1H-imidazol-4-ylamino)quinazolin-2-yl)(4-fluorophenyl)methanol] are 10 to 50 nM, over 100 nM, over 500 nM and “A (A ≦ 0.3)”.
For the molecule `Cn1cnc(Nc2nc(C(O)c3ccc(F)cc3)nc3ccccc23)c1` (racemic) [Example 2, (R,S)-(4-fluorophenyl)(4-(1-methyl-1H-imidazol-4-ylamino)quinazolin-2-yl)methanol], the Kd was at most 10 nM in test [1] and 10 to 100 nM in test [4]. Moreover, the IC50 in test [2] lay within 100 to 500 nM. Further, the “S-Score: S(10) at 10 μM” value in test [3] is given as “A (A ≦ 0.3)”.
For `OC(c1ccc(F)cc1)c1nc(Nc2cscn2)c2ccccc2n1` (racemic) [Example 4, (R,S)-(4-fluorophenyl)(4-(thiazol-4-ylamino)quinazolin-2-yl)methanol], the Kd in test [1] was 10 to 50 nM; in test [4], over 100 nM. Besides, in test [2], the IC50 was over 500 nM. Besides, the “S-Score: S(10) at 10 μM” value in test [3] is reported as “A (A ≦ 0.3)”.

What is called Kd is the constant that tells how readily two partners part at equilibrium. Read a high Kd as weaker binding. The term IC50 denotes the concentration that gives 50% inhibition.
